# According to publication PMC7609050, “Photosynthesis without β-carotene” (eLife, 2020):
# Biological target: T1, PSII core (Nicotiana tabacum, UniProt P06411+P06413+P69556+P69686)
# T1 construct: gene psbA; native PSII core complex, sucrose gradient band of alpha-DDM-solubilised thylakoids; some Lhcb contamination
# Assay: HPLC and absorption-fit pigment analysis of isolated complex
# Format: binding
# Conditions: normalised to 37 Chls
# Source text: HPLC and absorption-fit pigment analysis of isolated complex on PSII core
SMILES,β-caro (complex from wild-type plants) [molecules per complex],"Asta and its bypass products (complex from Asta plants (no beta-carotene), count includes by-products of astaxanthin synthesis) [molecules per complex]"
CC1=C(/C=C/C(C)=C/C=C/C(C)=C/C=C/C=C(C)/C=C/C=C(C)/C=C/C2=C(C)CCCC2(C)C)C(C)(C)CCC1 [β-carotene],3.93 ± 0.08,
CC1=C(/C=C/C(C)=C/C=C/C(C)=C/C=C/C=C(C)/C=C/C=C(C)/C=C/C2=C(C)C(=O)[C@@H](O)CC2(C)C)C(C)(C)C[C@H](O)C1=O [astaxanthin],,4.12 ± 0.01
